Assay results reported in patent publication US9340590B2 (priority 2011, dated 2016).
Positions of bridges follow the written chain, without caps; N, C: chain ends. Non-standard residues stand in square brackets, D forms with d. Residues, ends and D or L forms follow the SMILES beside them. 1Nal = N[C@@H](Cc1cccc2ccccc12)C(=O)O

How the values were obtained:
Assay in all cases: cell-based
hNav1.5 = hNav1.5 (Homo sapiens, UniProt Q14524); settings: IonWorks Quattro, use-dependent block, hNav1.5; read-out: IWQ Use Nav1.5
hNav1.5, sequence (Q14524 whole entry, looked up): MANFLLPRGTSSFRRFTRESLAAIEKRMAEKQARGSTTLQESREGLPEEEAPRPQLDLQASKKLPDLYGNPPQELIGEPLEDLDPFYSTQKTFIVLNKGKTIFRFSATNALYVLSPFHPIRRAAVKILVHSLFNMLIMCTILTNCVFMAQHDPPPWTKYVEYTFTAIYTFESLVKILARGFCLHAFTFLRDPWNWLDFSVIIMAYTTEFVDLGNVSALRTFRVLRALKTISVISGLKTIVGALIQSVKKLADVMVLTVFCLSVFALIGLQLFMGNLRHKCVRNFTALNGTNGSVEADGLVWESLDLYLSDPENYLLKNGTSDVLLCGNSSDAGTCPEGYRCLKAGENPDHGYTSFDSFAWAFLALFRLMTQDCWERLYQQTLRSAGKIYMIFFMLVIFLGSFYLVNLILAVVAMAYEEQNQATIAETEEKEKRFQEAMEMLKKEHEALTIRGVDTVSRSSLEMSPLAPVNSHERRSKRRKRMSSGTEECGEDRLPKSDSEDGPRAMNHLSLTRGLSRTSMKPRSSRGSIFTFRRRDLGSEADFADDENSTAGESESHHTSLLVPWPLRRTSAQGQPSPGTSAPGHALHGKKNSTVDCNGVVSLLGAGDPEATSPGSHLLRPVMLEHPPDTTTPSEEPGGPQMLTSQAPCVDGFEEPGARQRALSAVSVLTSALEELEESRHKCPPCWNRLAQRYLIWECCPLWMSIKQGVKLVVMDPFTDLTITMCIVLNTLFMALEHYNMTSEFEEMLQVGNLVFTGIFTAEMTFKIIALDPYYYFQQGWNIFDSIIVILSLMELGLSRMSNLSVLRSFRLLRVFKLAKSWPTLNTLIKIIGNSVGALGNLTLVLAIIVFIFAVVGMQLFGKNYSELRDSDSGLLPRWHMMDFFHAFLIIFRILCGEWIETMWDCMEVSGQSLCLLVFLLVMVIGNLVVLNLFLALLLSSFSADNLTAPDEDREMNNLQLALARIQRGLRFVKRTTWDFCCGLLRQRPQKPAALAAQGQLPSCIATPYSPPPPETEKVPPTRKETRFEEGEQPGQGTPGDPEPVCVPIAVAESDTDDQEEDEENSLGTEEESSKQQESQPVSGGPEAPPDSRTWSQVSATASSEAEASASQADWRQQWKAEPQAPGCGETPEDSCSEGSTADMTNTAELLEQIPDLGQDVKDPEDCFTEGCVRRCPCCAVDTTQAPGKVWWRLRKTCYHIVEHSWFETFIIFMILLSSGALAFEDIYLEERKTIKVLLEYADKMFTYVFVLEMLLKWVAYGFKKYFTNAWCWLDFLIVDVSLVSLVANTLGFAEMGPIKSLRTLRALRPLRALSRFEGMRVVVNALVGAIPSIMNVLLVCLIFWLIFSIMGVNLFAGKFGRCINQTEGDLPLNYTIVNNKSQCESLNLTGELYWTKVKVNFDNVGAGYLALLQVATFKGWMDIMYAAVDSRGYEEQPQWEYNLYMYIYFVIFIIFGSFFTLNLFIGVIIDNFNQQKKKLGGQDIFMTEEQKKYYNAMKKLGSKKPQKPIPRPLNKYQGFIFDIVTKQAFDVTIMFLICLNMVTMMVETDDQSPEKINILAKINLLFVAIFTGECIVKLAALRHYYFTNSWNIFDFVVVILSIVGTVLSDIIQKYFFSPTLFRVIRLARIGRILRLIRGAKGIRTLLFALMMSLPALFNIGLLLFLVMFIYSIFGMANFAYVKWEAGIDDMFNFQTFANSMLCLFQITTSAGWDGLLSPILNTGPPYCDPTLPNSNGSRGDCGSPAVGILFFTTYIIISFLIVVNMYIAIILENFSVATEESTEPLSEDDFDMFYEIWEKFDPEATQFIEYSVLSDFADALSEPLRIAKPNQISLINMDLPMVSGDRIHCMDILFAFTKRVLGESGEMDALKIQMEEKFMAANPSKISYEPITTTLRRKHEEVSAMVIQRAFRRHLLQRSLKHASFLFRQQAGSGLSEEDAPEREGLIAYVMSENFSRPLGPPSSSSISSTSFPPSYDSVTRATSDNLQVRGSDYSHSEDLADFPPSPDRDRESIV

hNav1.3 = hNav1.3 (Homo sapiens, UniProt Q9NY46); settings: IonWorks Quattro, use-dependent block, hNav1.3; read-out: IWQ Use Nav1.3
hNav1.3, sequence (Q9NY46 whole entry, looked up): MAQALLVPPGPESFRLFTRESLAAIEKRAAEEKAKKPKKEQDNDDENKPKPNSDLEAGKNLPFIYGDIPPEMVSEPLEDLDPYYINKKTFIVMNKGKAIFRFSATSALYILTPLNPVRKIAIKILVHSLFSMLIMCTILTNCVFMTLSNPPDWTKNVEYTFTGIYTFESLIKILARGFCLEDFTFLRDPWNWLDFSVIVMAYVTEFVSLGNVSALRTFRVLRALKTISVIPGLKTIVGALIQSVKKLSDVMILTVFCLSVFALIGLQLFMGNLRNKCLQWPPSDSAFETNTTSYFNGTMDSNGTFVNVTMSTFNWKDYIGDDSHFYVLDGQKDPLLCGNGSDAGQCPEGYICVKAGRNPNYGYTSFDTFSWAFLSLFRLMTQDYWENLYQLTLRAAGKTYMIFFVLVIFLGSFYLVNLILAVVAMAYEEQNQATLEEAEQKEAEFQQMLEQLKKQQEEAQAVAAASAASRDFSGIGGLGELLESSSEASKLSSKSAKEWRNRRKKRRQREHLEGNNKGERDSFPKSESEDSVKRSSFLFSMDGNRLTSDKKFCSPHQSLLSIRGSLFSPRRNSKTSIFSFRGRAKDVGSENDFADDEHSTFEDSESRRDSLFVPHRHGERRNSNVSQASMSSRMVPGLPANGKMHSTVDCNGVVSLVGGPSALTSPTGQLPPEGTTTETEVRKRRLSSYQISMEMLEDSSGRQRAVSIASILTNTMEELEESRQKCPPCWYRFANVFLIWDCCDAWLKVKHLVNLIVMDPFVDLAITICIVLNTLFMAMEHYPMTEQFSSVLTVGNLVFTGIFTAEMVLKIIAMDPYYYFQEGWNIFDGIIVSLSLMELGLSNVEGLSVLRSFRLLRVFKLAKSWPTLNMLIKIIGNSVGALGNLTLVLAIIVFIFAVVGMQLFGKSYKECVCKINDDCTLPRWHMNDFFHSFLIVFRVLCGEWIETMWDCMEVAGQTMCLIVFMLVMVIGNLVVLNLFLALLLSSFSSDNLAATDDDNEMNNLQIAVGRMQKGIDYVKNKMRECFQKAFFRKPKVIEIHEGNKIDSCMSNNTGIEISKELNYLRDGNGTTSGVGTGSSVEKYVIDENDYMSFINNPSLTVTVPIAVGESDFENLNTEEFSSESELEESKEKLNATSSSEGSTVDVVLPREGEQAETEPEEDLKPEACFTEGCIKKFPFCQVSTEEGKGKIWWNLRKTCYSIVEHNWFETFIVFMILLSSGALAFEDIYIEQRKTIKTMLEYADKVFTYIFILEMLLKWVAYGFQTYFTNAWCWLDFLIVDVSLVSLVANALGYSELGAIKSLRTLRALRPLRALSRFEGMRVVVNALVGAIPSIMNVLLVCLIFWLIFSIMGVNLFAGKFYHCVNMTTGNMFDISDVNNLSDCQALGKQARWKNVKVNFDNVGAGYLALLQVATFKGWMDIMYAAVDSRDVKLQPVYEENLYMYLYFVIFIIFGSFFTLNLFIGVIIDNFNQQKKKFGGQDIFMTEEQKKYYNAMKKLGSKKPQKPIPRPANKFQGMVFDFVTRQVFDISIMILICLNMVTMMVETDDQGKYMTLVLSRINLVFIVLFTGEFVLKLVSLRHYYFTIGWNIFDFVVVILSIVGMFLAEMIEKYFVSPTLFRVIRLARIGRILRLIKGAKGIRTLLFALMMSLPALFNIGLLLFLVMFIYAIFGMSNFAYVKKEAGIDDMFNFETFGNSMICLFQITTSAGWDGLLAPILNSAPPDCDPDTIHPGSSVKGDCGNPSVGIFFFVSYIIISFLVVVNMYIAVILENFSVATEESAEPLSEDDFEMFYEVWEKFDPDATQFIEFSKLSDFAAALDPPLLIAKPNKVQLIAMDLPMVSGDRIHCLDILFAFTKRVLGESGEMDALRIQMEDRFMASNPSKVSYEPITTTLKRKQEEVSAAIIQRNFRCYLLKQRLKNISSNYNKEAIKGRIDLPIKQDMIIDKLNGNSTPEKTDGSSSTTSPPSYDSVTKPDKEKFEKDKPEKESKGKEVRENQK

hNav1.7 = hNav1.7 (Homo sapiens, UniProt Q15858); format: cell-based; settings: IonWorks Quattro, use-dependent block, hNav1.7; read-out: IWQ Use Nav1.7

Row | Compound | IC50 (hNav1.5) [nM] | IC50 (hNav1.3) [nM] | IC50 (hNav1.7) [nM]
1 | CC[C@H](C)[C@@H]1NC(=O)[C@@H]2CSSC[C@@H]3NC(=O)[C@H](C(C)C)NC(=O)[C@H](CC(C)C)NC(=O)[C@H](CC(N)=O)NC(=O)[C@@H]4CCCN4C(=O)[C@H](CCCNC(=N)N)NC(=O)[C@H](CSSC[C@H](NC(=O)[C@@H](N)CC(=O)O)C(=O)N[C@@H](CC(C)C)C(=O)NCC(=O)N[C@@H](Cc4ccccc4)C(=O)N[C@@H](Cc4c[nH]c5ccccc45)C(=O)N[C@@H](CCCNC(=N)N)C(=O)N[C@@H](CCCCN)C(=O)N2)NC(=O)[C@H](CSSC[C@@H](C(=O)N[C@@H](CCCCN)C(=O)N[C@@H](Cc2c[nH]c4ccccc24)C(=O)N[C@H](C(=O)N[C@@H](Cc2ccccc2)C(N)=O)C(C)C)NC(=O)[C@H](Cc2c[nH]c4ccccc24)NC(=O)[C@H](CCCCN)NC(=O)[C@H](Cc2c[nH]cn2)NC(=O)[C@H]([C@@H](C)O)NC(=O)[C@H](CCCNC(=N)N)NC(=O)[C@H](CO)NC3=O)NC(=O)[C@H](CCCCN)NC(=O)[C@H](CC(=O)O)NC(=O)[C@H](CC(N)=O)NC(=O)[C@H](CC(=O)O)NC(=O)[C@@H]2CCCN2C1=O [compound 449] (H-DCLGFWRKCIPDNDKCCRPNLVCSRTHKWCKWVF-NH2; disulfide 2-17, 9-23, 16-30) | 2930 | 10 | 30
2 | CC[C@H](C)[C@@H]1NC(=O)[C@@H]2CSSC[C@@H]3NC(=O)[C@H](C(C)C)NC(=O)[C@H](CC(C)C)NC(=O)[C@H](CC(N)=O)NC(=O)[C@@H]4CCCN4C(=O)[C@H](CCCNC(=N)N)NC(=O)[C@H](CSSC[C@H](NC(=O)[C@@H](N)CC(=O)O)C(=O)N[C@@H](CC(C)C)C(=O)NCC(=O)N[C@@H](Cc4ccccc4)C(=O)N[C@@H](CCSC)C(=O)N[C@@H](CCCNC(=N)N)C(=O)N[C@@H](CCCCN)C(=O)N2)NC(=O)[C@H](CSSC[C@@H](C(=O)N[C@@H](CCCCN)C(=O)N[C@@H](Cc2c[nH]c4ccccc24)C(=O)N[C@@H](Cc2c[nH]c4ccccc24)C(=O)N[C@@H](Cc2ccccc2)C(N)=O)NC(=O)[C@H](Cc2c[nH]c4ccccc24)NC(=O)[C@H](CCCCN)NC(=O)[C@H](Cc2c[nH]cn2)NC(=O)[C@H]([C@@H](C)O)NC(=O)[C@H](CCCNC(=N)N)NC(=O)[C@H](CO)NC3=O)NC(=O)[C@H](CCCCN)NC(=O)[C@H](CC(=O)O)NC(=O)[C@H](CC(N)=O)NC(=O)[C@H](CC(=O)O)NC(=O)[C@@H]2CCCN2C1=O [compound 450] (H-DCLGFMRKCIPDNDKCCRPNLVCSRTHKWCKWWF-NH2; disulfide 2-17, 9-23, 16-30) | 11500 | 30 | 50
3 | CSCC[C@@H]1NC(=O)[C@H](Cc2ccccc2)NC(=O)CNC(=O)[C@H](CC(C)C)NC(=O)[C@@H](NC(=O)[C@@H](N)CC(=O)O)CSSC[C@@H]2NC(=O)[C@@H]3CSSC[C@@H](C(=O)N[C@@H](CCCCN)C(=O)N[C@@H](Cc4cccc5ccccc45)C(=O)N[C@H](C(=O)N[C@@H](Cc4ccccc4)C(N)=O)C(C)C)NC(=O)[C@H](Cc4c[nH]c5ccccc45)NC(=O)[C@H](CCCCN)NC(=O)[C@H](Cc4c[nH]cn4)NC(=O)[C@H]([C@@H](C)O)NC(=O)[C@H](CCCNC(=N)N)NC(=O)[C@H](CO)NC(=O)[C@H](CSSC[C@H](NC(=O)[C@H](CCCCN)NC(=O)[C@H](CCCNC(=N)N)NC1=O)C(=O)N[C@@H](Cc1cccc4ccccc14)C(=O)N1CCC[C@H]1C(=O)N[C@@H](CC(=O)O)C(=O)N[C@@H](CC(N)=O)C(=O)N[C@@H](CC(=O)O)C(=O)N[C@@H](CCCCN)C(=O)N3)NC(=O)[C@H](C(C)C)NC(=O)[C@H](CC(C)C)NC(=O)[C@H](CC(N)=O)NC(=O)[C@@H]1CCCN1C(=O)[C@H](CCCNC(=N)N)NC2=O [compound 452] | > 5000 | 3 | 5
4 | CC[C@H](C)[C@@H]1NC(=O)[C@@H]2CSSC[C@@H]3NC(=O)[C@H](C(C)C)NC(=O)[C@H](CC(C)C)NC(=O)[C@H](CC(N)=O)NC(=O)[C@@H]4CCCN4C(=O)[C@H](CCCNC(=N)N)NC(=O)[C@H](CSSC[C@H](NC(=O)[C@@H](N)CC(=O)O)C(=O)N[C@@H](CC(C)C)C(=O)NCC(=O)N[C@@H](Cc4ccccc4)C(=O)N[C@@H](CCSC)C(=O)N[C@@H](CCCNC(=N)N)C(=O)N[C@@H](CCCCN)C(=O)N2)NC(=O)[C@H](CSSC[C@@H](C(=O)N[C@@H](CCCCN)C(=O)N[C@@H](Cc2cccc4ccccc24)C(=O)N[C@H](C(=O)N[C@@H](Cc2ccccc2)C(N)=O)C(C)C)NC(=O)[C@H](Cc2c[nH]c4ccccc24)NC(=O)[C@H](CCCCN)NC(=O)[C@H](Cc2c[nH]cn2)NC(=O)[C@H](CC(C)C)NC(=O)[C@H](CCCNC(=N)N)NC(=O)[C@H](CO)NC3=O)NC(=O)[C@H](CCCCN)NC(=O)[C@H](CC(=O)O)NC(=O)[C@H](CC(N)=O)NC(=O)[C@H](CC(=O)O)NC(=O)[C@@H]2CCCN2C1=O [compound 453] (H-DCLGFMRKCIPDNDKCCRPNLVCSRLHKWCK[1Nal]VF-NH2; disulfide 2-17, 9-23, 16-30) | > 5000 | 10 | 10
5 | CC[C@H](C)[C@@H]1NC(=O)[C@@H]2CSSC[C@@H]3NC(=O)[C@H](C(C)C)NC(=O)[C@H](CC(C)C)NC(=O)[C@H](CC(N)=O)NC(=O)[C@@H]4CCCN4C(=O)[C@H](CCCNC(=N)N)NC(=O)[C@H](CSSC[C@H](NC(=O)[C@@H](N)CC(=O)O)C(=O)N[C@@H](CC(C)C)C(=O)NCC(=O)N[C@@H](Cc4ccccc4)C(=O)N[C@@H](CCSC)C(=O)N[C@@H](CCCNC(=N)N)C(=O)N[C@@H](CCCCN)C(=O)N2)NC(=O)[C@H](CSSC[C@@H](C(=O)N[C@@H](CCCCN)C(=O)N[C@@H](Cc2c[nH]c4ccccc24)C(=O)N[C@@H](Cc2cccc4ccccc24)C(=O)N[C@@H](Cc2ccccc2)C(N)=O)NC(=O)[C@H](Cc2c[nH]c4ccccc24)NC(=O)[C@H](CCCCN)NC(=O)[C@H](Cc2c[nH]cn2)NC(=O)[C@H]([C@@H](C)O)NC(=O)[C@H](CCCNC(=N)N)NC(=O)[C@H](CO)NC3=O)NC(=O)[C@H](CCCCN)NC(=O)[C@H](CC(=O)O)NC(=O)[C@H](CC(N)=O)NC(=O)[C@H](CC(=O)O)NC(=O)[C@@H]2CCCN2C1=O [compound 455] (H-DCLGFMRKCIPDNDKCCRPNLVCSRTHKWCKW[1Nal]F-NH2; disulfide 2-17, 9-23, 16-30) | > 5000 | 40 | 20
6 | CC[C@H](C)[C@@H]1NC(=O)[C@@H]2CSSC[C@@H]3NC(=O)[C@H](C(C)C)NC(=O)[C@H](CC(C)C)NC(=O)[C@H](CC(N)=O)NC(=O)[C@@H]4CCCN4C(=O)[C@H](CCCNC(=N)N)NC(=O)[C@H](CSSC[C@H](NC(=O)[C@@H](N)CC(=O)O)C(=O)N[C@@H](CC(C)C)C(=O)NCC(=O)N[C@@H](Cc4ccccc4)C(=O)N[C@@H](Cc4c[nH]c5ccccc45)C(=O)N[C@@H](CCCNC(=N)N)C(=O)N[C@@H](CCCCN)C(=O)N2)NC(=O)[C@H](CSSC[C@@H](C(=O)N[C@@H](CCCCN)C(=O)N[C@@H](Cc2ccc(O)cc2)C(=O)N[C@H](C(=O)N[C@@H](Cc2ccccc2)C(N)=O)C(C)C)NC(=O)[C@H](Cc2c[nH]c4ccccc24)NC(=O)[C@H](CCCCN)NC(=O)[C@H](Cc2c[nH]cn2)NC(=O)[C@H](CC(C)C)NC(=O)[C@H](CCCNC(=N)N)NC(=O)[C@H](CO)NC3=O)NC(=O)[C@H](CCCCN)NC(=O)[C@H](CC(=O)O)NC(=O)[C@H](CC(N)=O)NC(=O)[C@H](CC(=O)O)NC(=O)[C@@H]2CCCN2C1=O [compound 456] (H-DCLGFWRKCIPDNDKCCRPNLVCSRLHKWCKYVF-NH2; disulfide 2-17, 9-23, 16-30) | > 5000 | 10 | 30
